Experimental data as given in patent US20210355107A1, “MULTI-SUBSTITUTED PYRIDONE DERIVATIVES AND MEDICAL USE THEREOF” (Beijing Yuezhikangtai Biomedicines Co., Ltd., priority 2018, published 2021).

Target: T1, tyrosine kinase Tyro3 (Homo sapiens, UniProt Q06418)
T1 construct: purchased Carna 08-109
T1 sequence (Q06418 453-890 limits assumed): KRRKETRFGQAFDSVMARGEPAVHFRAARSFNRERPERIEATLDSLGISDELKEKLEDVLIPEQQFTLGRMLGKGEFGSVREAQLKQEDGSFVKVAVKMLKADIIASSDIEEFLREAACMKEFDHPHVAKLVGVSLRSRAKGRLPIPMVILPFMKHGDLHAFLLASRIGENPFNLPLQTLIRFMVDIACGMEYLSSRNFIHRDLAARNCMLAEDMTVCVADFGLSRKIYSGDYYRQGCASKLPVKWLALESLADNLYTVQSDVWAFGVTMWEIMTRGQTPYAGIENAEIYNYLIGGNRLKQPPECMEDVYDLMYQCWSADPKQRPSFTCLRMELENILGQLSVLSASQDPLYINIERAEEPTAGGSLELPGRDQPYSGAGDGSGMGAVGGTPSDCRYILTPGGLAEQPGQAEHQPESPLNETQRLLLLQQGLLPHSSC
Assay: HTRF assay, inhibitory activity against tyrosine kinase Tyro3
Type: biochemical
Conditions: ATP at Km (50 μM), two duplicate wells
Experimental: Test Example 2: Evaluation of Inhibitory Activity (IC50) of Compounds disclosed herein against Tyrosine Kinases Mer and Tyro3
In this test, HTRF method was used to test the inhibitory activity of compounds when ATP concentrations correspond to the Km of the kinases. The control substance was RXDX-106. The concentration of test compound was 3-fold diluted from an initial concentration of 10 μM, and two duplicate wells were set.
Kinase Mer (Carna, Cat. No. 08-108, Lot. No. 14CBS-0421H); Tyro3 (Carna, Cat. No. 08-109, Lot. No. 08CBS-1186H); HTRF kinase-TK kit (Cisbio, Cat. No. 62TK0PEC), the kit comprising: biotin-TK substrate lyophilized powder (Cisbio, Cat. No. 61TK0BLC, Lot. No. 07A), streptavidin-XL665 (Cisbio, Cat. No. 610SAXLG, Lot. No. 126A), TK antibody-cryptate (Cisbio, Cat. No. 610SAXLG, Lot. No. 04A), and detection buffer (including EDTA) (Cisbio, Cat. No. 62TK0PEC, Lot. No. 12A); ATP (Sigma, Cat. No. A7699-5G, CAS No. 34369-07-8, Lot. No. SLBQ6014V); DMSO (Sigma, Cat. No. D5879-1L, Lot. No. SHBH9944); HEPES (Sigma, Cat. No. V900477-500G, CAS No. 7365-45-9, Lot. No. WXBC4716V); MgCl2 (Sigma, Cat. No. 208337-1KG, Lot. No. MKBX9508V); EGTA (Sigma, Cat. No. E3889-100g, CAS 67-42-5, […], Lot. No. SLBG8546V); NP-40 (Beijing Dingguo, Cat. No. DH218, Lot. No. 36R00160); DTT (Sigma, Cat. No. D0632-25g, CAS No. 3483-12-3, Lot. No. SLBF3964V); compound plate (Labcyte, Cat. No. LP0200, Lot. No. 0006386836); assay plate (Greiner, Cat. No. 784075, Lot. No. E16123HM); control substance RXDX-106 (prepared according to the method disclosed in patent WO2013074633).
1) Preparation of a buffer: 50 mM HEPES, 10 mM MgCl2, 1 mM EGTA, 0.01% NP-40, 2 mM DTT.
2) Preparation of control substance and test samples: RXDX-106 and the compounds disclosed herein were each dissolved in DMSO to 10 mM and then diluted to 1 mM or an appropriate concentration with DMSO, and then serial double dilution was performed using BRAVO (Agilent). 100 nL of each was transferred from a compound plate (Labcyte-LP0200) to an assay plate (Greiner-784075) using ECHO 555 (Labcyte). The final concentration of DMSO was 1%.
3) Mer and Tyro3 were each diluted to 0.5 nM and 1.2 nM with the detection buffer (Cisbio, Cat. No. 62TK0PEC, Lot. No. 12A). 5 μL of each was added to a 384-well plate and incubated with the compounds disclosed herein for 30 min at 22-25° C. Final concentrations of Mer and Tyro3 were 0.25 nM and 0.6 nM, respectively.
4) Biotin-TK substrate and ATP were each diluted to a concentration twice the final concentration with 1× kinase buffer made up of HEPES, NaN3, BSA and orthovanadate. 5 μL of the mixture of substrate and ATP was added to the 384-well plate to initiate the reaction, which lasts for 1 h at 22-25° C.
5) Streptavidin-XL665 and TK antibody-cryptate were diluted to 250 nM and 0.5 nM, respectively, with the detection buffer. […] of each of the two solutions was added to the 384-well plate to initiate the reaction, which lasts for 1 h at 22-25° C. The final concentrations of streptavidin-XL665 and TK antibody-cryptate were 125 nM and 0.25 nM, respectively.
6) The fluorescence intensities at 665 nm and 615 nm were read with an Envision Reader (PerkinElmer) .
7) IC50 values of the compounds were fitted with XL-fit software.

SMILES	IC50
CCn1cc(-c2cnc(N)c(-c3cc(F)c(NC(=O)c4cn(C(C)C)c(C#N)c(-c5ccc(F)cc5)c4=O)cc3F)c2)cn1 [Example 33, N-(4-(2-amino-5-(1-ethyl-1H-pyrazol-4-yl)pyridin-3-yl)-2,5-difluorophenyl)-6-cyano-5-(4-fluorophenyl)-1-isopropyl-4-oxo-1,4-dihydropyridine-3-carboxamide]	0.5 nM
[2H]C([2H])([2H])n1cc(-c2cnc(N)c(-c3cc(F)c(NC(=O)c4cn(C(C)C)c(C#N)c(-c5ccc(F)cc5)c4=O)cc3F)c2)cn1 [Example 34, N-(4-(2-amino-5-(1-methyl-d3-1H-pyrazol-4-yl)pyridin-3-yl)-2,5-difluorophenyl)-6-cyano-5-(4-fluorophenyl)-1-isopropyl-4-oxo-1,4-dihydropyridine-3-carboxamide]	1.16 nM
CC(C)n1cc(C(=O)Nc2ccc(-c3cc(-c4cnn(C5CCNCC5)c4)cnc3N)c(F)c2)c(=O)c(-c2ccc(F)cc2)c1C#N [Example 2, N-(4-(2-amino-5-(1-(piperidin-4-yl)-1H-pyrazol-4-yl)pyridin-3-yl)-3-fluorophenyl)-6-cyano-5-(4-fluorophenyl)-1-isopropyl-4-oxo-1,4-dihydropyridine-3-carboxamide]	1.18 nM
COc1cc2nccc(Oc3ccc(NC(=O)c4cn(C(C)C)c(C#N)c(-c5ccc(F)cc5)c4=O)cc3F)c2cc1OC [Example 24, 6-cyano-N-(4-((6,7-dimethoxyquinolin-4-yl)oxy)-3-fluoro-phenyl)-5-(4-fluorophenyl)-1-isopropyl-4-oxo-1,4-dihydropyridine-3-carboxamide]	15.5 nM
CCn1cc(-c2cnc(N)c(-c3ccc(NC(=O)c4cn(C5CC5)c(C#N)c(-c5ccc(F)cc5)c4=O)cc3F)c2)cn1 [Example 10, N-(4-(2-amino-5-(1-ethyl-1H-pyrazol-4-yl)pyridin-3-yl)-3-fluorophenyl)-6-cyano-5-(4-fluorophenyl)-1-cyclopropyl-4-oxo-1,4-dihydropyridine-3-carboxamide]	30.2 nM
CC(C)n1cc(C(=O)Nc2ccc(-c3cc(-c4cnn(C)c4)cnc3N)c(F)c2)c(=O)c(-c2ccc(F)cc2)c1C#N [Example 4, N-(4-(2-amino-5-(1-methyl-1H-pyrazol-4-yl)pyridin-3-yl)-3-fluorophenyl)-6-cyano-5-(4-fluorophenyl)-1-isopropyl-4-oxo-1,4-dihydropyridine-3-carboxamide]	2.67 nM
CCn1cc(-c2cnc(N)c(-c3ccc(NC(=O)c4cn(C(C)C)c(C#N)c(-c5ccc(F)cc5)c4=O)cc3F)c2)cn1 [Example 3, N-(4-(2-amino-5-(1-ethyl-1H-pyrazol-4-yl)pyridin-3-yl)-3-fluoro-phenyl)-6-cyano-5-(4-fluorophenyl)-1-isopropyl-4-oxo-1,4-dihydropyridine-3-carboxamide]	2.27 nM
CC(C)n1cc(C(=O)Nc2cc(F)c(-c3cc(-c4cnn(C)c4)cnc3N)cc2F)c(=O)c(-c2ccc(F)cc2)c1C#N [Example 6, N-(4-(2-amino-5-(1-methyl-1H-pyrazol-4-yl)pyridin-3-yl)-2,5-difluorophenyl)-6-cyano-5-(4-fluorophenyl)-1-isopropyl-4-oxo-1,4-dihydropyridine-3-carboxamide]	1.8 nM
CC(C)n1cc(C(=O)Nc2ccc(-c3cc(-c4cnn(C5CCN(C)CC5)c4)cnc3N)c(F)c2)c(=O)c(-c2ccc(F)cc2)c1C#N [Example 7, N-(4-(2-amino-5-(1-(1-methylpiperidin-4-yl)-1H-pyrazol-4-yl)-pyridin-3-yl)-3-fluorophenyl)-6-cyano-5-(4-fluorophenyl)-1-isopropyl-4-oxo-1,4-dihydro-pyridine-3-carboxamide]	1.77 nM
